Reference: PMC6600592, “Design, Synthesis, and Bioactive Screen In Vitro of Cyclohexyl (E)-4-(Hydroxyimino)-4-Phenylbutanoates and Their Ethers for Anti-Hepatitis B Virus Agents” (Molecules, 2019)
Where two headings read alike, the source gives them in different places.

Legend:
[1] = Cytotoxicity in HepG 2.2.15 cells (MTT assay, nine days); type: cell-based, human; settings: human, after nine days, read-out: CC50 (50% cytotoxicity concentration)
Method: (§1) These synthesized compounds were evaluated for anti-HBV activity with referring to reported method. The HepG2.2.15 cell, a human hepatoblastoma cell line stably transfected with cloned HBV DNA, was obtained from Chinese Academy of Medical Sciences (Beijing, China), and was cultured in Dulbecco’s Modified Eagle’s Medium (DMEM) supplemented with 10% fetal bovine serum and 1.5 g/L of sodium bicarbonate, 10 mL/L of streptomycin, 10 mL/L of penicillin, and 200 mg/L of G418 at 37 °C in a 5% CO2 atmosphere with 95–98% humidity. Then, HepG2.2.15 cell was plated at a density of 1 × 10^5 cells/mL in 96-well plates and incubated at 37 °C for 24 h and then treated with variant concentration of compounds in […]; every three days, in a nine day period, C (OD) values were recorded at 450 nm. After nine days, the percent of cell death was measured using the method of MTT assay after drug treatment. Cytotoxicity of these compounds was expressed as the concentration of compound required to kill 50% (CC50) of the HepG 2.2.15 cells.

HBeAg = assay: cells; settings: for HBeAg SI (selectivity index = CC50/IC50): CC50/IC50 for HBeAg
Method: as §1
(§2) Method for the HBsAg and HBeAg Inhibition Assays. The levels of HBV surface antigen (HBsAg) and HBV e antigen (HBeAg) in the supernatant of the HepG2.2.15 cells were determined by the enzyme-linked immunosorbent assay (ELISA) according to the manufacturer’s protocol (Shanghai Kehua Biotech Co., Ltd., Shanghai, China). The synthesized compounds were expressed as the concentration that achieved 50% inhibition (IC50) to the secretion of HBsAg and HBeAg. The selectivity index (SI) was determined as the ratio of CC50 to IC50 which a major pharmaceutical parameter of estimates possible future clinical application.

HBsAg = assay: cells; settings: for HBsAg SI (selectivity index = CC50/IC50): CC50/IC50 for HBsAg
Method: as §1, §2

HepG 2.2.15 cells = assay: Cytotoxicity in HepG 2.2.15 cells (MTT assay, nine days); type: cell-based, human; settings: after nine days, read-out: CC50 (50% cytotoxicity concentration)
Method: as §1

[2] = Hepatitis B virus, HepG2.2.15, read-out: HBeAg IC50
[3] = Hepatitis B virus, HepG2.2.15, read-out: HBsAg IC50
[4] = read-out: HBeAg IC50, secretion of HBeAg, HepG 2.2.15 cells, mean ± S.E.M., n = 3
[5] = read-out: HBsAg IC50, secretion of HBsAg, HepG 2.2.15 cells, mean ± S.E.M., n = 3

Compound	CC50 at 9 days [1] [µM]	HBeAg SI (selectivity index = CC50/IC50) (HBeAg; HepG 2.2.15 cells)	IC50 (HBeAg; [2]) [µM]	HBsAg SI (selectivity index = CC50/IC50) (HBsAg; HepG 2.2.15 cells)	IC50 (HBsAg; [3]) [µM]	CC50 (HepG 2.2.15 cells) [µM]	IC50 (HBeAg; [4]) [µM]	IC50 (HBsAg; [5]) [µM]
O=C(CC/C(=N\OCc1ccccc1)c1ccc(Cl)cc1)OC1CCCCC1 [Compound 4D-3, Cyclohexyl (E)-4-benzyloxyimino-4-(4-chlorophenyl)butanoate]	604	6.25	96.8 ± 5.13	6.53	92.6 ± 4.94			
CO/N=C(\CCC(=O)OC1CCCCC1)c1ccccc1 [Compound 4A-2, Cyclohexyl (E)-4-methoxyimino-4-phenylbutanoate]	660	5.55	119 ± 13.2	6.03	109 ± 16.1			
Cc1ccc(/C(CCC(=O)OC2CCCCC2)=N/O)cc1 [Compound 4B-1, Cyclohexyl (E)-4-hydroxyimino-4-(4-methylphenyl)butanoate]	444	1.56	284 ± 26.7	1.72	257 ± 16.5			
O=C(CC/C(=N\OCc1ccccc1)c1ccccc1)OC1CCCCC1 [Compound 4A-3, Cyclohexyl (E)-4-benzyloxyimino-4-phenylbutanoate]	974	7.53	129 ± 13.6	8.58	114 ± 6.15			
COc1ccc(/C(CCC(=O)OC2CCCCC2)=N/OCc2ccccc2)cc1 [Compound 4C-3, Cyclohexyl (E)-4-benzyloxyimino-4-(4-methoxyphenyl)butanoate]	678	5.20	130 ± 21.5	6.08	112 ± 7.25			
Cyclohexyl (E)-4-hydroxyimino-4-(4-chlorophenyl)butanimidate [Compound 4D-1]						396	373 ± 16.9	352 ± 11
CO/N=C(\CCC(=O)OC1CCCCC1)c1ccc(OC)cc1 [Compound 4C-2, Cyclohexyl (E)-4-methoxyimino-4-(4-methoxyphenyl)butanoate]	630	4.92	128 ± 34.6	5.94	106 ± 8.67			
Nc1ccn([C@@H]2CS[C@H](CO)O2)c(=O)n1 [Compound 3TC, Lamivudine, reference compound]	516							
Cyclohexyl (E)-4-methoxyimino-4-(4-methoxyphenyl)butanoate [Compound 4B-2]						856	49.4 ± 4.17	63.9 ± 6.26
COc1ccc(/C(CCC(=O)OC2CCCCC2)=N/O)cc1 [Compound 4C-1, Cyclohexyl (E)-4-hydroxyimino-4-(4-methoxyphenyl)butanoate]	481	1.19	405 ± 4.8	0.98	489 ± 11.2			
CO/N=C(\CCC(=O)OC1CCCCC1)c1ccc(Cl)cc1 [Compound 4D-2, Cyclohexyl (E)-4-methoxyimino-4-(4-chlorophenyl)butanoate]	581	6.83	85.1 ± 11.9	8.59	67.7 ± 8.81			
Cc1ccc(/C(CCC(=O)OC2CCCCC2)=N/OCc2ccccc2)cc1 [Compound 4B-3, Cyclohexyl (E)-4-benzyloxyimino-4-(4-methylphenyl)butanoate]	860	10.16	84.6 ± 6.6	10.95	78.5 ± 9.87			
O=C(CC/C(=N\O)c1ccccc1)OC1CCCCC1 [Compound 4A-1, Cyclohexyl (E)-4-hydroxyimino-4-phenylbutanoate]	528	1.41	375 ± 36.2	1.04	506 ± 28.6			
